Assay results reported in patent US11160803B2, “Phthalazinone derivatives” (KUDOS PHARMACEUTICALS LIMITED, priority 2003, dated 2021).

Experiments:
[1] = tested on: Brca2 wild type (D3) ES cells; experiment: Clonogenic survival, continuous exposure, Brca2 wild type ES cells; assay type: cell-based; details: matched wild type cells (Brca2), clonogenic assay, continuous exposure (FIG. 1B)
Procedure: (§1) To assess the stand alone activity of a PARP inhibitor on Braca 1 and 2 deficient cells the following protocols were used.
(§2) Compound (4) was dissolved in DMSO at 10 mM and stored at −20° C. in the dark.
(§3) VC8 cells and the mouse Brca2 BAC complemented derivatives were as described in M. Kraakman-van der Zwet, et al., Mol Cell Biol 22, 669-79 (2002)). ES cells defective in Brca2 function have been described previously (Tutt, et al., EMBO Rep 3, 255-60 (2002)). The construction of ES cells defective in Brca1 will be described elsewhere but have previously been validated (Foray, et al., Embo J, 22, 2860-71 (2003)).
(§4) For measurement of cellular sensitivity to a PARP inhibitor (compound 4), cell cultures in exponential growth were trypsinised and seeded at various densities in 6-well plates onto Mitomycin C inactivated mouse embryonic fibroblasts and where appropriate treated with the test compound after 18 hours. For continuous exposure, cells were re-fed every 4 days with fresh medium and inhibitor. After 10-14 days, cells were washed with PBS, fixed in methanol and stained with crystal violet. Colonies containing greater than approximately 50 cells were counted. Experiments were performed at least three times in triplicate.

[2] = tested on: Chinese hamster ovary cells deficient in Brca2 (VC8); experiment: Clonogenic survival, continuous exposure, Brca2 deficient VC8 cells; assay type: cell-based
[3] = tested on: Brca2-complemented derivative (VC8-BAC); experiment: Clonogenic survival, continuous exposure, Brca2-complemented VC8-BAC cells; assay type: cell-based, Chinese hamster; details: matched control VC8-BAC, clonogenic assay (FIG. 2)
[4] = tested on: Brca2 deficient (Cre24) ES cells; experiment: Clonogenic survival, continuous exposure, Brca2 deficient ES cells; assay type: cell-based; details: ratio of SF50 wild type / Brca2 deficient ES cells
Procedure: as §1, §2, §3, §4

[5] = tested on: Brca1 deficient (Cre10) ES cells; experiment: Clonogenic survival, continuous exposure, Brca1 deficient ES cells; assay type: cell-based
Procedure: as §1, §2, §3, §4

[6] = tested on: Brca1 wild type (11CO) ES cells; experiment: Clonogenic survival, continuous exposure, Brca1 wild type ES cells; assay type: cell-based; details: matched wild type cells (Brca1), clonogenic assay, continuous exposure (FIG. 1A)
Procedure: as §1, §2, §3, §4

O=C(c1cc(Cc2n[nH]c(=O)c3ccccc23)ccc1F)N1CCCNCC1 [compound 4, 4-[3-([1,4]diazepane-1-carbonyl)-4-fluorobenzyl]-2H-phthalazin-1-one]
SF50 (dosage at which 50% of cells survived) [1]: 18 µM
SF50 (dosage at which 50% of cells survived) ([2]; Brca2 deficient VC8 line, clonogenic assay (FIG. 2)): 50 nM
fold enhanced sensitivity of Brca2 mutant cells compared to wild type cells ([2]; ratio of SF50 VC8-BAC / VC8): 600 fold
SF50 (dosage at which 50% of cells survived) [3]: 30 µM
fold enhanced sensitivity of Brca2 mutant cells compared to wild type cells [4]: 1,500 fold
SF50 (dosage at which 50% of cells survived) ([5]; cells deficient in Brca1, clonogenic assay, continuous exposure (FIG. 1A)): 15 nM
fold enhanced sensitivity of Brca1 mutant cells compared to wild type cells ([5]; ratio of SF50 wild type / Brca1 deficient): 467 fold
SF50 (dosage at which 50% of cells survived) [6]: 7 µM
